One experiment has as its system caspase 3. In words: Caspase 3 activity assay, mammary epithelial cells. Format: cell-based, human. Conditions: 100 μM EGCG, 24 hours. The method, then: Caspase 3 activity assay. The Caspase 3 Apoptosis Detection Kit was purchased from Santa Cruz Biotech. Inc. In a 24 well tissue culture plate, 10^5 cells/well of control or treated cells in triplicates were plated. […] To each well, 100 μl of 2×reaction buffer was added with 10 mM DTT. Finally, 5 μl of DEVD-AFC substrate was added to each well containing cell lysates. The reaction mixtures were incubated for 1 hour at 37° C. The caspase 3 activity in each well was measured using a fluorescence plate reader set for 405 nanometer (nm) excitation and 505 nm emission.

A further experiment concerns NS-SV-AC cells. Description: Mitochondrial SDH activity in immortalized salivary glandular cells. Format: cell-based, human. As to conditions: NS-SV-AC and two other immortalized salivary glandular cell lines.
In another experiment the test system is caspase 14. Description: Immunoblot of caspase 14 protein in NHEK. Format: cell-based, human. The protocol: To identify additional factors those suppress EGCG -induced apoptosis and facilitate cell differentiation in NHEK, exponentially growing NHEK (Cambrex, Baltimore, Md.) were exposed to 100 μM EGCG for 0, 2, 6 and 24 hours, prior to total RNA isolation using the Qiagen RNeasy mini kit (Valencia, Calif.), which was followed by RT-PCR labeling and hybridization with the Human Apoptosis Macroarray membrane (Sigma-Genosys, The Woodlands, Tex.). Total cell lysates also were collected following a variety of EGCG treatments. The protein levels for caspase 14 and p21 were determined by immuno-blotting using antibodies specific for caspase 14 and p21 (Santa Cruz Biotechnology, Santa Cruz, Calif.).

In experiment [1] the test system is aged normal human primary epidermal keratinocytes. In words: BrdU incorporation assay, aged keratinocytes. Format: cell-based. As to conditions: EGCG 15-50 μM, 15-day and 20-day keratinocytes. The protocol: Culturing normal human epithelial cells. The pooled normal human primary epidermal keratinocytes were purchased from Cambrex (Baltimore, Md.) and sub-cultured in the specific growth media provided by the manufacturer (KGM-2). […] Exponentially growing keratinocytes were treated and harvested in their early passages (2-3 passages). […] Analysis of DNA synthesis using the BrdU incorporation method. The BrdU cell proliferation kit was purchased from Oncogene Research Products (Boston, Mass.). […] Experiments were repeated three times in triplicate for each experiment.

Experiment [2] relates to MCF7 cells. Description: Morphological analysis, MCF7 cells. Format: cell-based, human. Conditions: EGCG, 48 hours, vs 24 hour control. The text has this: Cell lines and cell culture. The normal human keratinocytes (NHEK CC-2507) were purchased from Cambrex (East Rutherford, N.J.) and maintained in KGM-2 medium (Cambrex). The OSC2 cell line was previously described (Osaki et al., Eur J Cancer B Oral Oncol 1994; 30 B:296-301). The breast carcinoma MCF7 cell line was purchased from American Type Culture Collection. The MCF7(C) caspase+cell line “7-3-28 ” was established and tested as previously described (Janicke et al., J Biol Chem 1998; 273:9357-60, Blanc et al., Cancer Res 2000; 60:4386-90). These tumor cells were maintained in 45% Dulbecco's Modified Eagle's Medium (DMEM), 45% Ham's F12 medium and 10% fetal calf serum, 100 I.U/ml penicillin, 100 μg/ml streptomycin and 5 μg/ml hydrocortisone. All cell cultures were maintained in a 37° C. incubator with 5% CO2. Light microscopic photographs were taken with a SPOT RT digital camera system (Diagnostic Instruments) linked to a Nikon Phase Contrast-2 microscope at an original magnification of 200×.

The subject of experiment [3] is MCF7 cells. In words: BrdU incorporation assay, MCF7 cells. Format: cell-based, human. As to conditions: increasing EGCG. The protocol:
DNA synthesis analysis using BrdU incorporation method. The BrdU cell proliferation kit was purchased from Oncogene Research Products, Boston, Mass. Cells were culture in 96 well plates with 10^4 cells/well. After EGCG and GTPPs treatments, cells were labeled by BrdU, reacted with BrdU antibody and the color reaction was carried out according to the protocol provided by the manufacturer. The coloration was measure by a Thermo MAX microplate reader using wavelengths 450 nm-562 nm.

Another experiment deals with OSC-2 cells. Description: Intracellular ROS levels (DFDA assay), OSC-2 cells. Format: cell-based, human. The method, then:
(§1) Measurement of intracellular ROS levels. The ROS assay measures the accumulation of intracellular ROS levels. The non-fluorescent dye DFDA passively diffuses into cells, where the acetates are cleaved by intracellular esterases. […] Thus, values of the fluorescence in the cell cultures are constantly rising in this assay. Cells (1.5×10^4 cells/well) were incubated with Hallam's physiological saline (HPS) containing DFDA (10 μM) in a 96-well microplate for 30 minutes at 37° C. After the incubation, cells were washed three times with HPS and then incubated with HPS containing EGCG (15-200 μM) or diamide (5 mM) for the indicated time periods. The intracellular ROS levels were measured by using a fluorescence plate reader (BIO-TEK FL600, Bio-Tek Instruments, Inc., Winooski, Vt.), at an excitation wavelength of 485 nm and an emission wavelength of 530 nm.
as §1, with “assay (DFDA assay)” for “assay”, “dye dichlorofluorescein diacetate (DFDA)” for “dye DFDA”, “this assay due to the accumulation of ROS.” for “this assay.”, “EGCG (50-200” for “EGCG (15-200”, “indicated times.” for “indicated time periods.”

Some results are limits rather than exact numbers.

Experimental for NS-SV-AC cells: MTT [3-(4,5-dimethylthiazol-2-yl)-2,5-diphenyl tetrazolium bromide] assay. […] Cells (1.5×10^4 cells/well) were seeded in a 96-well microplate and treated with the indicated doses of EGCG for 24 hours. After the treatment, the cells in each well were washed with 200 μl of phosphate-buffered saline (PBS), incubated with 100 μl of 2% MTT in a solution of 0.05 M Tris, 0.5 mM MgCl2, 2.5 mM CoCl2, and 0.25 M disodiumn succinate as substrate (Sigma) at 37° C. for 30 minutes. Cells were fixed in situ by the addition of 100 μl of 4% formalin in 0.2 M Tris (pH 7.7), and after a 5 minute incubation at room temperature liquid was removed and the wells were allowed to dry. Each well was rinsed with 200 μl water and cells were solubilized by the addition of 100 μl of 6.35% 0.1 N NaOH in DMSO. The colored formazan product was measured by a Thermo MAX micro plate reader (Molecular Devices Corp., Sunnyvale, Calif.) at a wavelength of 562 nm. Experiments were repeated three times with triplicate samples for each experiment.

Consider `O=C(O[C@@H]1Cc2c(O)cc(O)cc2O[C@@H]1c1cc(O)c(O)c(O)c1)c1cc(O)c(O)c(O)c1` [EGCG, (−)-epigallocatechin-3-gallate], for which the “increase in caspase 3 activity compared to control” value in the experiment with caspase 3 stood at 3 fold. The “tolerance, mitochondrial SDH activity” value in the experiment with NS-SV-AC cells is listed as “tolerant to high concentrations of EGCG”. For the same molecule, the “production of immunoreactive caspase 14 increased” value in the experiment on caspase 14 (30 μM EGCG (Example 10)) came to 5 fold. The “increase in caspase 14 protein” value with caspase 14 (30 μM EGCG, 48 hours) is 26 fold; in the experiment with caspase 14 (100 μM EGCG, 24 hours) it was 2 fold; in the experiment on caspase 14 (100 μM EGCG, 48 hours), 5 folds; with caspase 14 (EGCG at or below 50 μM, 24 hours), over 5 fold. In addition, the results for the BrdU incorporation entry (in experiment [1]; in the experiment with MCF7 cells [3]) were “slight negative impact on BrdU incorporation” and “able in incorporate BrdU efficiently”, respectively. In addition, the cell density result in the experiment with MCF7 cells [2] is on record as “increased cell density was observed”. In addition, in the experiment with OSC-2 cells (50 μM EGCG, 60 minute exposure), the “intracellular ROS levels vs controls” value is “remained comparable to the controls”. Moreover, in the experiment on OSC-2 cells (50 or 200 μM EGCG, beyond 120 minutes), the “intracellular ROS levels vs control” value is given as “remained significantly higher than the control levels”. For the same molecule, the “H2O2 concentration producing ROS equivalent to 200 μM EGCG” value in the experiment on OSC-2 cells (first hour) was found to be 50 µM.

(Values after patent US20040191842A1, “Chemopreventive and therapeutic aspects of polyphenolic compositions and assays” (Medical College of Georgia Research Institute, Inc., priority 2002, published 2004).)
